One block for each compound: values may come before it. Activity calls are given as the source filed them.
Tests used:
Leucine aminopeptidase = molecular target: T1, Leucine aminopeptidase (Plasmodium falciparum 3D7, UniProt Q8IL11); experiment: P. falciparum M17LAP inhibitors, primary screen, biochemical, fluorogenic H-Leu-NHMec substrate, 1536-well (AID 1619); assay type: functional
T1 sequence (Q8IL11 whole entry): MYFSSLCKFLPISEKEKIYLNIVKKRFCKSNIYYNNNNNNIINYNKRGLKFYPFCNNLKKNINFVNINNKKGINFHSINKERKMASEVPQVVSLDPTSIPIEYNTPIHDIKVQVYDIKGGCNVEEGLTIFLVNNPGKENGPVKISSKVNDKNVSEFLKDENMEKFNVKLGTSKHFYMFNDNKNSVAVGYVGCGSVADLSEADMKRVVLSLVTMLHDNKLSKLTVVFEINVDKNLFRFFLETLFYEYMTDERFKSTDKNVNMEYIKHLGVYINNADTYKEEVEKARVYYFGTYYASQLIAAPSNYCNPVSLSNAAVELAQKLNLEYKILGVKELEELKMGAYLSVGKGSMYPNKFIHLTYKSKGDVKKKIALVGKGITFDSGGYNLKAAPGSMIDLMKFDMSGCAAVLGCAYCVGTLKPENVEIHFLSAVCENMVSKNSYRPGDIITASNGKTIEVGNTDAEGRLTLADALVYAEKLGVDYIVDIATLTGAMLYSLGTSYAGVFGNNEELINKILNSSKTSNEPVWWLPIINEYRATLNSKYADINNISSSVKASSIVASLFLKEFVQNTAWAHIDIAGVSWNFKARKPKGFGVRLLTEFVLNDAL

Aspartyl aminopeptidase = Aspartyl aminopeptidase (Plasmodium falciparum 3D7, UniProt Q8I2J3)
Procathepsin L = Procathepsin L (Homo sapiens, UniProt P07711)
Large T antigen = Large T antigen (Simian virus 40, UniProt P03070); assay type: functional, Betapolyomavirus macacae;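 further: Confirmatory-stage PubChem screen for compounds that inhibit SV40 T antigen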
Estrogen receptor = molecular target: T2, Estrogen receptor (Homo sapiens, UniProt P03372); experiment: potentiators of ERα–SRC-1 coactivator binding, dose response, biochemical, TR-FRET, ERα LBD (AID 737)
T2 sequence (P03372 whole entry): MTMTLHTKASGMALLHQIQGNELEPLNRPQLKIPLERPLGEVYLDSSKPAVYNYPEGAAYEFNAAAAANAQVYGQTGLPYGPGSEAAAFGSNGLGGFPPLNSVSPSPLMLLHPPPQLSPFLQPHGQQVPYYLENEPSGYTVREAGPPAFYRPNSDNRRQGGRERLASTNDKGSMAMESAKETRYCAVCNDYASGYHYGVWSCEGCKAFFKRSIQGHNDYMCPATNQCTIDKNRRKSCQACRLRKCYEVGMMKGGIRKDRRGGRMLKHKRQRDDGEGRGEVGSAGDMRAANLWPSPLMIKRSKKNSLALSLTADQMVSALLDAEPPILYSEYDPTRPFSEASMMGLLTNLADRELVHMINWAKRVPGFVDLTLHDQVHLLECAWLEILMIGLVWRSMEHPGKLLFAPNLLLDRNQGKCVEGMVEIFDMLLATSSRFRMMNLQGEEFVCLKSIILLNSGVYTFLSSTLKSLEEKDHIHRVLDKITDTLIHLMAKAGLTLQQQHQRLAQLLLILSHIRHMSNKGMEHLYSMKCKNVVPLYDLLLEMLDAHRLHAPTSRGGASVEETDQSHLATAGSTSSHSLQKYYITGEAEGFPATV

NADPH oxidase 1 = NADPH oxidase 1 (Homo sapiens, UniProt Q9Y5S8); assay type: functional, cell-based;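 further: Cell-based assay with luminescence read-out, IC50 derived from inhibitor dose-response curves; intracellular ROS from endogenous NOX1 in intact HT29 colon cancer cells; potency of inhibitors that lower the ROS luminescence signal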
Estrogen receptor beta = Estrogen receptor beta (Homo sapiens, UniProt Q92731); experiment: ERβ–SRC-3 coactivator interaction inhibitors, confirmation, orthogonal assay, biochemical, ELISA, streptavidin-HRP readout (AID 1060)
[1] = Counterscreen for IDE inhibitors: Luminescence-based cell-based high throughput dose response assay to identify compounds that are cytotoxic to HEK cells. [Related pubchem assays: 434962 (Primary screen (IDE inhibitors in singlicate)), 449730 (Counterscreen (Cytotoxicity in triplicate)), 435028 (Confirmation (IDE inhibitors in triplicate)) …; assay type: functional; details: HEK293
Insulin-degrading enzyme = molecular target: T3, Insulin-degrading enzyme (Homo sapiens, UniProt P14735); experiment: Dose Response: Fluorescence polarization-based cell-based high throughput dose response assay for inhibitors of insulin-degrading enzyme (IDE). [Related pubchem assays: 434962 (Primary screen (IDE inhibitors in singlicate)), 449730 (Counterscreen (Cytotoxicity in triplicate)), 435028 (Confirmation (IDE inhibitors in triplicate)), 434984 (Summary …; assay type: functional
T3 sequence (P14735 whole entry): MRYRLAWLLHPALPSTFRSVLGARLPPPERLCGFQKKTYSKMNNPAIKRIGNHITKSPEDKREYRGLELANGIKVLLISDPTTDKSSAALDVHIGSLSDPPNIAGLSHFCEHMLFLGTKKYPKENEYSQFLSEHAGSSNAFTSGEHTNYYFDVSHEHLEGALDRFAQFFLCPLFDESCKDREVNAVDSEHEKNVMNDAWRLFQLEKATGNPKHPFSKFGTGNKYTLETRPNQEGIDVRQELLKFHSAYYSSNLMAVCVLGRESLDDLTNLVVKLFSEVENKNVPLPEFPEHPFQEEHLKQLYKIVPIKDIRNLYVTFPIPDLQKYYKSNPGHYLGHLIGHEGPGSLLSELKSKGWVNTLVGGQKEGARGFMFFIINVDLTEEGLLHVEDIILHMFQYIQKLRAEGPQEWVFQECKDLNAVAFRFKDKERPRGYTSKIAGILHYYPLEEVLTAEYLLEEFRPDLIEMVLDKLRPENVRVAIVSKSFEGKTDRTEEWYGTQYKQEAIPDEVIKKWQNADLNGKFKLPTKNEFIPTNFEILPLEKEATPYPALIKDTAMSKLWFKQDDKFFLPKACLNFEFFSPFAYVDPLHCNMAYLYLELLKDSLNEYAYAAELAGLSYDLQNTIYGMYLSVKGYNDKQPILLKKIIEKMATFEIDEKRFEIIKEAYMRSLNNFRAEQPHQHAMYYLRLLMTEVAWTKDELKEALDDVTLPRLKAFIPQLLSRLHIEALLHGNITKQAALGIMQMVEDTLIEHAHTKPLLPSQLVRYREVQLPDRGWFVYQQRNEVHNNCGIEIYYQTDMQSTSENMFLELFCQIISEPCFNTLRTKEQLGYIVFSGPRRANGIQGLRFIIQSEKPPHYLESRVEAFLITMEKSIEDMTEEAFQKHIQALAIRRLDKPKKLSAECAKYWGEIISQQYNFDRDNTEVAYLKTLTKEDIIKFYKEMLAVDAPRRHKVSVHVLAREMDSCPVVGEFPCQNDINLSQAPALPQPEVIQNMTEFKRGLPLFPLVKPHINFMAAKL

[2] = cytotoxicity in KRAS-transformed pancreatic duct cells, primary screen, cell-based, fluorescence, HTS (AID 431); assay type: functional; details: Homo sapiens;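 further: cell line used: HPDE-C7K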
[3] = cytotoxicity in HPDE-C7 cells, cell-based, fluorescence, HTS (AID 430); assay type: functional; details: Homo sapiens
[4] = molecular target: Mothers against decapentaplegic homolog 3 (Homo sapiens, UniProt P84022); experiment: SMAD3 transcription factor inhibitors, dose response (AID 715); assay type: functional
[5] = Luminescence Cell-Based Dose Confirmation HTS to Identify Inhibitors of Platelet Dense Granule Release. [Related pubchem assays: 1663 (Primary HTS), 1678 (Summary of Project)]; assay type: functional
[6] = molecular target: T4, Neuropeptide Y receptor type 1 (Homo sapiens, UniProt P25929); assay type: functional;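 on IC50: HEK293 cells with a CNG channel challenged with NPY then isoproterenol; potency as antagonist that reverses NPY suppression of cAMP signal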
[7] = molecular target: Luciferin 4-monooxygenase (Photinus pyralis, UniProt P08659); experiment: firefly luciferase enzyme inhibitors, dose response, biochemical, luminescence (AID 1891)
[8] = molecular target: T5, Neuropeptide Y receptor type 2 (Homo sapiens, UniProt P49146); assay type: functional, cell-based;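 on IC50: HEK293 cells expressing the receptor and a CNG channel; stimulus was NPY near EC95 followed by isoproterenol to raise cAMP; antagonist potency measured as restoring cAMP signal that NPY suppresses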
[9] = molecular target: T4, Neuropeptide Y receptor type 1; experiment: Fluorescence-based dose response cell-based high-throughput screening assay for agonists of NPY-Y1. [Related pubchem assays: 1697 (Screening assay (NPY-Y1 agonists).), 1359 (Screening assay (NPY-Y2 potentiators or agonists).), 1304 (Screening assay (NPY-Y1 potentiators or agonists).), 1704 (Screening assay (CNGC inhibitors).), 1791 (Summary AID.)]; assay type: functional
[10] = molecular target: T5, Neuropeptide Y receptor type 2; experiment: Fluorescence-based counterscreen for agonists of NPY-Y1: cell-based high-throughput dose response assay for agonists of NPY-Y2.; assay type: functional
HEK293 = experiment: Fluorescence-based counterscreen for potentiators or agonists of NPY-Y1: cell-based high-throughput dose response assay for inhibitors of cyclic nucleotide gated ion channel (CNGC) activity. In this assay, the parental HEK293 cell line transfected with a cyclic-nucleotide gated ion channel (CNGC)-based cAMP sensor is used to measure inhibition of isoproterenol-induced CNGC …; assay type: functional; details: Homo sapiens
[11] = molecular target: Sphingosine 1-phosphate receptor 2 (Homo sapiens, UniProt O95136); experiment: Dose Response Cell Based Assay for Agonists of the S1P2 Receptor of Purchased Analogues. [Related pubchem assays: 729, 843, 854, 736 ]; assay type: functional
[12] = molecular target: Sphingosine 1-phosphate receptor 4 (Homo sapiens, UniProt O95977); experiment: Fluorescence dose response cell-based high throughput screening assay for antagonists of the Sphingosine 1-Phosphate Receptor 4 (S1P4). [Related pubchem assays: 1524 (Confirmation in triplicates.), 1510 (Primary screen.)]; assay type: functional
[13] = molecular target: T6, Polyadenylate-binding protein 1 (Homo sapiens, UniProt P11940); experiment: PABP1 MLLE–PAM2 binding inhibitor potency, dose response, biochemical, fluorescence polarization, FITC-PAM2 peptide (AID 602259); assay type: functional; details: read-out: IC50_Mean
[14] = inhibitors of intracellular T. cruzi replication, confirmation, NIH3T3 host cells, beta-gal luminescence (AID 2044); assay type: functional, cell-based;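 further: intracellular parasites grown in NIH/3T3 mouse fibroblasts as host cells; luminescent beta-galactosidase reporter signal from transgenic T. cruzi replicating inside host cells; inhibitors lower the luminescence signal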
[15] = molecular target: Sphingosine 1-phosphate receptor 1 (Homo sapiens, UniProt P21453); assay type: functional;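 further: Tango beta-arrestin reporter U2OS cells stimulated with S1P near its EC80; inhibitor potency meaning antagonism of receptor activation by the natural agonist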
[16] = cytotoxicity toward NIH3T3 fibroblasts, dose response, counter-screen, cell-based, ATP luminescence, mouse fibroblasts (AID 2010); assay type: functional;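 further: cells exposed to compound for about 90 hours before reading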
[17] = molecular target: T6, Polyadenylate-binding protein 1; experiment: PABP1 MLLE–PAM2 interaction inhibitors, dose response, miRNA deadenylation inhibitor project, biochemical, fluorescence polarization, Cy5-PAM2 peptide, secondary (AID 602260); assay type: functional; details: read-out: IC50_Mean

T6 sequence (P11940 whole entry): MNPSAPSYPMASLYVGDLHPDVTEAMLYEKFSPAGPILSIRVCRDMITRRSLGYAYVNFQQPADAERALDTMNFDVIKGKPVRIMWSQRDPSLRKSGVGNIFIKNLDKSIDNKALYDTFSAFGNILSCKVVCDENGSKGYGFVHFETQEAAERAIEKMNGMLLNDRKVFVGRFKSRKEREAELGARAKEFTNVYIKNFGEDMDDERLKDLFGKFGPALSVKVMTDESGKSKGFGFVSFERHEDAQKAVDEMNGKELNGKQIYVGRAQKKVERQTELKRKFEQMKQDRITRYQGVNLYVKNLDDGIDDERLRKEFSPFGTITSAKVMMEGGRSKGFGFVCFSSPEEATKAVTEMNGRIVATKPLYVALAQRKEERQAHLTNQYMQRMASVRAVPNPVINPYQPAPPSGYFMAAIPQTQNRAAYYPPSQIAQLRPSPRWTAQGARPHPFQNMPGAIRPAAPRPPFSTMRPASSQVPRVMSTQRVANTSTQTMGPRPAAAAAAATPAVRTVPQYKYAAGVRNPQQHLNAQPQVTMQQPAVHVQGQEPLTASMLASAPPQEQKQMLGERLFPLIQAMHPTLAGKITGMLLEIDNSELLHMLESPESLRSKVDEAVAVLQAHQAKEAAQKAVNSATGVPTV
T4 sequence (P25929 whole entry): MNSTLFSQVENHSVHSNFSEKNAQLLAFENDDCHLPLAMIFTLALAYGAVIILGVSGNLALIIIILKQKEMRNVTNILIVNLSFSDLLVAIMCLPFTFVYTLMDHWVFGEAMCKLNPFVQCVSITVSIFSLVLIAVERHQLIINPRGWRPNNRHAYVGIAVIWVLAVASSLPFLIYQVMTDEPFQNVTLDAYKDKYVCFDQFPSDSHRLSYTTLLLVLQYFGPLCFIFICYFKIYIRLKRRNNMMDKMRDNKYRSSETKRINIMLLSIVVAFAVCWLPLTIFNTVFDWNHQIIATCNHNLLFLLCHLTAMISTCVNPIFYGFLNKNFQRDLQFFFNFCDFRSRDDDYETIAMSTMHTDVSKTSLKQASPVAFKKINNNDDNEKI
T5 sequence (P49146 whole entry): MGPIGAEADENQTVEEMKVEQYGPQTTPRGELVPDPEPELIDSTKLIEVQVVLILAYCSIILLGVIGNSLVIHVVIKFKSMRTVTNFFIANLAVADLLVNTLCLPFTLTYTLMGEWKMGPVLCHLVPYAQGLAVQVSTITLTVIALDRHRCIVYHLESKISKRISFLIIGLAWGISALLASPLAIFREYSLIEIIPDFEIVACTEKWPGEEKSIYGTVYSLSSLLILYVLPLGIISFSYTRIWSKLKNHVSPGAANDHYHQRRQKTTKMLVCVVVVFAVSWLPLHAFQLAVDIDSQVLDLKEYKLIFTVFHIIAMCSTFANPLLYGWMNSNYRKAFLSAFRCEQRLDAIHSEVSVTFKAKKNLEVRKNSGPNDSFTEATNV
Chain of Sphingosine 1-phosphate receptor 1 (P21453 whole entry): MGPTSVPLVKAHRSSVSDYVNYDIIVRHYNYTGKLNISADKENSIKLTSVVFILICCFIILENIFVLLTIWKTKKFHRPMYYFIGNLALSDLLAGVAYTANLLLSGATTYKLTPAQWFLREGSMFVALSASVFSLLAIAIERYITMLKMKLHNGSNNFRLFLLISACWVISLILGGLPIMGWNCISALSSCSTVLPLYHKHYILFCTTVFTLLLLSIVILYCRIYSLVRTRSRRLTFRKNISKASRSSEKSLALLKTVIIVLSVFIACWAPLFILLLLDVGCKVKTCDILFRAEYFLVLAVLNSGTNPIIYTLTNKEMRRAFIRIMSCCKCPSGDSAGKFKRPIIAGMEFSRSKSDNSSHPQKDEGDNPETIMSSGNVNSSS
Chain of Mothers against decapentaplegic homolog 3 (P84022 whole entry): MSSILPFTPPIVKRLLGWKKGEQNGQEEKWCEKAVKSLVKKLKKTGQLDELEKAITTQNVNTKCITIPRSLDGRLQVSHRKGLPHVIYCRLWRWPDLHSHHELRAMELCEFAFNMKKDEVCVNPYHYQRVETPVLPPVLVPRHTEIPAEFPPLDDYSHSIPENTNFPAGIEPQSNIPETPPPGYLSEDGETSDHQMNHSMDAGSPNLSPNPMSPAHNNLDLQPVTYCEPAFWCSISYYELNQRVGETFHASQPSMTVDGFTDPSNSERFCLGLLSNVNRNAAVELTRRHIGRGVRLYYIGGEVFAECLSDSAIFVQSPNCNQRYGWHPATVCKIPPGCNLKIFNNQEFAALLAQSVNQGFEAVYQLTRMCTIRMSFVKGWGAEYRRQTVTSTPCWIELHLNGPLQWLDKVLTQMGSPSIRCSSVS
Chain of Procathepsin L (P07711 whole entry): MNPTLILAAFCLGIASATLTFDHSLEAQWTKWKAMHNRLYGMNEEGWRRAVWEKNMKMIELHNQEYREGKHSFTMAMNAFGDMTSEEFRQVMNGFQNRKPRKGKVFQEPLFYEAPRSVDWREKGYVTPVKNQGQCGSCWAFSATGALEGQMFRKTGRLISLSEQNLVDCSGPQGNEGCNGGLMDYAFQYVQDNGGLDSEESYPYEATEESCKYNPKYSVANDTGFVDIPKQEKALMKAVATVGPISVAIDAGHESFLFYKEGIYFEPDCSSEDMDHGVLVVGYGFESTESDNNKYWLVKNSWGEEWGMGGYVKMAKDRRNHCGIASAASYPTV
Chain of Estrogen receptor beta (Q92731 whole entry): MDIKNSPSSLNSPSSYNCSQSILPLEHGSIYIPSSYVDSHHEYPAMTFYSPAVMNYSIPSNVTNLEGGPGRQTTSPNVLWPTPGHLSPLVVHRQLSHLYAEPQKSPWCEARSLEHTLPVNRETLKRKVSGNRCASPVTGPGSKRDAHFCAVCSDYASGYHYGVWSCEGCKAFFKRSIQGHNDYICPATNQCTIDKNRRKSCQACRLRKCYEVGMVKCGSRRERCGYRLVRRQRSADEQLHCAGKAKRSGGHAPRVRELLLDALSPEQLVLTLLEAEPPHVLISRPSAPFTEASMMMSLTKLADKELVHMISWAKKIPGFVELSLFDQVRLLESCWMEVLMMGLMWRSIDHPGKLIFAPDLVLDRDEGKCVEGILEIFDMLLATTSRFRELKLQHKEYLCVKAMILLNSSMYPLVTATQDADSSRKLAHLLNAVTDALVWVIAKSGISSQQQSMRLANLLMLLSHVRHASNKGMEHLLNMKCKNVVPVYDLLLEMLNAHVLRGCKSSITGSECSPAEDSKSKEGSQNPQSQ
Chain of Luciferin 4-monooxygenase (P08659 whole entry): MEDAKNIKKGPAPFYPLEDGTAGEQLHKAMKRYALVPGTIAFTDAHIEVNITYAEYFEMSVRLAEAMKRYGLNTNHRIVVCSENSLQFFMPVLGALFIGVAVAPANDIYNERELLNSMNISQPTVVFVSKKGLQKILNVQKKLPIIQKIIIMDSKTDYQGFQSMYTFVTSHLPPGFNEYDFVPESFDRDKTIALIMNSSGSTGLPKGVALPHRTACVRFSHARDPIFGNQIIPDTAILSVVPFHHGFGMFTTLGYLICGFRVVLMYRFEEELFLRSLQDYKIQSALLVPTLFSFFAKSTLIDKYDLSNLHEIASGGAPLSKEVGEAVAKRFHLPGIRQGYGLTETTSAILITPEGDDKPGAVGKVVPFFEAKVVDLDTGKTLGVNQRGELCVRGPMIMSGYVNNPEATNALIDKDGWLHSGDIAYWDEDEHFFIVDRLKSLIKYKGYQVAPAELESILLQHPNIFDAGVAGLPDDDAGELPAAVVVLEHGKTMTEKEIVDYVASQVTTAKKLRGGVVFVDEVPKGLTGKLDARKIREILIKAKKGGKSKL
Chain of Large T antigen (P03070 whole entry, the tested form may be a part): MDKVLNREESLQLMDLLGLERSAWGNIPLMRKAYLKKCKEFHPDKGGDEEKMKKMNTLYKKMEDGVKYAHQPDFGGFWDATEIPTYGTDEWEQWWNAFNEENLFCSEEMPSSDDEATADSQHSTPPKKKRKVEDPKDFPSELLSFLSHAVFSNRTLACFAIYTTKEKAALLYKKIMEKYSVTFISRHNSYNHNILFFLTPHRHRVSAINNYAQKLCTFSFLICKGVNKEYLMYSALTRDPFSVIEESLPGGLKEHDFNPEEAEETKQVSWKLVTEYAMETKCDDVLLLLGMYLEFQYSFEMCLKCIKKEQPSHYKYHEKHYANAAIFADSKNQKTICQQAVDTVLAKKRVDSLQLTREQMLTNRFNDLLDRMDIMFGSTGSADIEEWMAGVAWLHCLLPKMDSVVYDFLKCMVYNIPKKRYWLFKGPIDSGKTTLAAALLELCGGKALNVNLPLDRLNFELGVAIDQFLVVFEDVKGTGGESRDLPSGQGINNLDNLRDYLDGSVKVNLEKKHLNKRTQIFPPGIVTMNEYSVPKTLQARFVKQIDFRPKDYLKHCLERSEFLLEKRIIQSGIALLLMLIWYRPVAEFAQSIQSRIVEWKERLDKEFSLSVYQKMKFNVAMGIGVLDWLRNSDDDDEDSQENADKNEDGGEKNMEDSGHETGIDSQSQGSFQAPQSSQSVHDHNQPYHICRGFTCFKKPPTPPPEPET
Chain of Sphingosine 1-phosphate receptor 4 (O95977 whole entry): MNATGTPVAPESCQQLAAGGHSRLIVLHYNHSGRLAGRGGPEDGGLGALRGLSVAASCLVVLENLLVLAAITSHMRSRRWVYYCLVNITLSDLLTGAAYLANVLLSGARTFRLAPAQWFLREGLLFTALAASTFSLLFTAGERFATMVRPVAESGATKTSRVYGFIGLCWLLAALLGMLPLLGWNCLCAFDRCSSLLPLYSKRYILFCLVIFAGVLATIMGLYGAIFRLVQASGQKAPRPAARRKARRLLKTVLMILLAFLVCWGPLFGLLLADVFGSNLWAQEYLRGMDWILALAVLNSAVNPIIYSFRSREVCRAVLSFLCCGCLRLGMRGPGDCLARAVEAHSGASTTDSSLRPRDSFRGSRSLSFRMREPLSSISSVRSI

Compound: COc1cccc(NC(=O)COC(=O)/C=C/c2c(C)nn(-c3ccccc3)c2C)c1
IC50 [1]: > 55.7 µM (not active) | IC50 (Insulin-degrading enzyme): 8.29 µM (active)

Compound: CCOP(=O)(c1ccccc1)c1nc(-c2ccccc2C)oc1N1CCCCC1 (stereo unspecified)
EC50 [2]: > 20 µM (not active) | EC50 [3]: > 20 µM (not active)

Compound: O=C(Nc1ccccc1)OCc1cc(-c2ccccc2Cl)on1
EC50 [5]: > 112 µM (not active) | IC50 [6]: 9 µM (active) | EC50 [7]: > 112 µM (not active) | IC50 [8]: 14.7 µM (not active)

Compound: CCC(C)C1C(C#N)=C(N)Oc2[nH]nc(-c3ccccc3)c21 (stereo unspecified)
EC50 [9]: > 35.4 µM (not active) | EC50 [10]: > 35.4 µM (not active) | IC50 (HEK293): 25 µM (not active)

Compound: CCC1(CC)NC(=O)N(CC(=O)OCC(=O)c2cc(C)n(Cc3ccccc3)c2C)C1=O
EC50 [11]: > 30 µM (not active)

Compound: Cc1ccnc(N2C(=O)c3cccc4c([N+](=O)[O-])ccc(c34)C2=O)c1
IC50 [12]: 1.62 µM (active) | IC50 [13]: 23.4 µM (inactive) | EC50 [14]: 4.58 µM (active) | IC50 [15]: 3.43 µM (active) | EC50 [16]: > 30 µM (not active) | IC50 [17]: > 66 µM (inactive)

Continued, values first:

IC50 (Leucine aminopeptidase): 19.9 µM (active) | IC50 (Aspartyl aminopeptidase): 0.975 µM (active) | IC50 (Procathepsin L): > 59.6 µM (not active)
Compound: O=C(CSc1nc[nH]n1)Nc1ccc([N+](=O)[O-])cc1Br

IC50 (Large T antigen): 78.8 µM (active) | EC50 (Estrogen receptor): 16.1 µM (active)
Compound: CCOc1ccccc1N1CSC2=C(C#N)C(c3c(OC)ccc4ccccc34)CC(=O)N2C1 (stereo unspecified)

IC50 (NADPH oxidase 1): > 17 µM (not active)
Compound: COc1ccc(-c2nc(-c3ccccc3)c(-c3ccccc3)[nH]2)cc1

IC50 (Estrogen receptor beta): 33 µM (not active)
Compound: O=C(CCCn1c(=S)[nH]c2ccccc2c1=O)N1CCN(c2ccc(C(F)(F)F)cc2)CC1

IC50 [4]: 14.6 µM (active)
Compound: Oc1ccccc1-c1nc(N2CCCC2)c2ccccc2n1

Reference: ChEMBL document CHEMBL1201862, “PubChem BioAssay data set” (2004)
